Where two headings read alike, the source gives them in different places.
How the values were obtained:
a7nAChR [1] = molecular target: a7nAChR (Mus musculus, UniProt P49582)
Description: (§1) To confirm platelet a7nAChR modulates hemostasis, we first administered the pharmacological a7nAChR agonist nicotine to wild-type mice before tail injury. […] To restrict a7nAChR to platelets, we transferred platelets from wild-type or a7KO donor mice into a7nAChR-deficient animals before tail transection.
(§2) Mice are screened before study inclusion to ensure visual similarity and consistency between the anatomy of the tail tips and the site of transection. […] Following vagus nerve stimulation or sham surgery, tails are immersed in water at 37+1° C. for five minutes. Tails are then removed from the solution, amputated 2 mm from the tip with a razor blade, and immediately placed into a 50 mL beaker containing water at 37+1° C. Tails are allowed to bleed uncontrolled until bleeding stops for a minimum of ten seconds. This duration of bleeding is recorded as bleeding time. For analyses of bleeding in factor VIII deficient mice, tails are first immersed in 0.9% saline at 37±1° C. for five minutes. Tails are then removed and amputated 2 mm from the tip with a razor blade. Tails are then placed into a 50 mL conical tube containing 0.9% saline at 37±1° C. Tails are allowed to bleed freely for a total of ten minutes. Total blood loss is determined by densitometry by measuring absorbance at 550 nm. A standard curve is created from a known volume of blood.

a7nAChR [2] = tested on: a7nAChR
Description: as §1, §2

Sequence of a7nAChR (Mus musculus, UniProt P49582) (P49582 23-502): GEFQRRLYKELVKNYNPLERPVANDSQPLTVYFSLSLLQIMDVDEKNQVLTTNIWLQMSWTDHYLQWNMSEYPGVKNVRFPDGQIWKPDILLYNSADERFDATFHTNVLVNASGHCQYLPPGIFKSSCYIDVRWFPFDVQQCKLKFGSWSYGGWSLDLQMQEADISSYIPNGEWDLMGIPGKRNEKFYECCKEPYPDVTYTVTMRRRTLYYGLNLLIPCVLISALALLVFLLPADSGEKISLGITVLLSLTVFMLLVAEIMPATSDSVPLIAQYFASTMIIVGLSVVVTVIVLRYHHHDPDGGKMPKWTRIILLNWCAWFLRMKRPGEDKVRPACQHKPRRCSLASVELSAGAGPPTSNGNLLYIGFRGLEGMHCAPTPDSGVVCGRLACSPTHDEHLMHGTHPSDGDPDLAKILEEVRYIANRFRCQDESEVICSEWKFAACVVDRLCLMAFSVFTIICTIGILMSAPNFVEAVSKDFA

CN1CCCC1c1cccnc1 (stereo not shown) [nicotine]
bleeding time as compared with vehicle treatment (a7nAChR [1]; a7nAChR-deficient mice reconstituted with wild-type platelets, FIG. 2H, p<0.05 vs. vehicle control): significantly reduces bleeding time
bleeding time as compared with vehicle treatment (a7nAChR [1]; wild-type mice, nicotine before tail injury, FIG. 2G, p<0.01 vs. vehicle control): significantly decreases bleeding time
bleeding time as compared with vehicle treatment (a7nAChR [2]; a7nAChR-deficient mice receiving platelets from a7KO donors, FIG. 2H): not
bleeding time as compared with vehicle treatment (a7nAChR [2]; a7nAChR-deficient mice, nicotine before tail transection, FIG. 2G): fails to reduce bleeding time
